Experimental data as given in US20160296529A1, “AMINOTRIAZOLOPYRIDINE FOR USE IN THE TREATMENT OF INFLAMMATION, AND PHARMACEUTICAL COMPOSITIONS THEREOF” (priority 2012, published 2016).
Several values for one entry are separate records, joined by “and”; a condition that tells them apart may be missing. Identical values can stand only once. Like-named read-outs stand apart in the source and are kept apart here.

Assays:
[1] = target: T1, Recombinant human JAK1 catalytic domain (Homo sapiens, UniProt P23458); test: JAK1 assay polyGT substrate; assay type: biochemical
T1 construct: amino acids 866-1154; catalog number PV4774; purchased Invitrogen PV4774
T1 sequence (P23458 866-1154): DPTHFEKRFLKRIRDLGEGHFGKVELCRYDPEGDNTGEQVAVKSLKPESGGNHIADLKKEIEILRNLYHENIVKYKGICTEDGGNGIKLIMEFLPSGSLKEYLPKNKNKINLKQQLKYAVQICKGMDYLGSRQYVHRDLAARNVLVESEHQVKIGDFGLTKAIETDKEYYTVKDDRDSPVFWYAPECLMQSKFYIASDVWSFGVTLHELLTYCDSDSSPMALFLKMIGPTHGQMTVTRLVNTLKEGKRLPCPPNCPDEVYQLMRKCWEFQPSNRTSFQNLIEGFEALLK
Experimental: Recombinant human JAK1 catalytic domain (amino acids 866-1154; catalog number PV4774) was purchased from Invitrogen. 25 ng of JAK1 was incubated with 6.25 μg polyGT substrate (Sigma catalog number P0275) in kinase reaction buffer (15 mM Hepes pH7.5, 0.01% Tween20, 10 mM MgCl2, 2 μM non-radioactive ATP, 0.25 μCi ^33P-gamma-ATP (Perkin Elmer, catalog number NEG602K001MC) final concentrations) with or without 5 μL containing test compound or vehicle (DMSO, 1% final concentration), in a total volume of 25 μL, in a polypropylene 96-well plate (Greiner, V-bottom). After 75 min at 30° C., reactions were stopped by adding 25 μL/well of 150 mM phosphoric acid. […] 40 μL/well of Microscint-20 was added, the top of the plates was sealed and readout was performed using the Topcount (Perkin Elmer). Kinase activity was calculated by subtracting counts per min (cpm) obtained in the presence of a positive control inhibitor (10 μM staurosporine) from cpm obtained in the presence of vehicle. The ability of a test compound to inhibit this activity was determined as:
Percentage inhibition−((cpm determined for sample with test compound present−cpm determined for sample with positive control inhibitor) divided by (cpm determined in the presence of vehicle−cpm determined for sample with positive control inhibitor))*100. […]

[2] = target: T1, Recombinant human JAK1 catalytic domain; test: JAK1 Ulight-JAK1 peptide assay; assay type: biochemical
Experimental: Recombinant human JAK1 (catalytic domain, amino acids 866-1154; catalog number PV4774) was purchased from Invitrogen. 1 ng of JAK1 was incubated with 20 nM Ulight-JAK1(tyr1023) peptide (Perkin Elmer catalog number TRF0121) in kinase reaction buffer (15 mM MOPS pH6.8, 0.01% Brij-35, 5 mM MgCl2, 2 mM DTT, 7 μM ATP) with or without 4 μL containing test compound or vehicle (DMSO, 1% final concentration), in a total volume of 20 μL, in a white 384 Opti plate (Perkin Elmer, catalog number 6007290). […] Readout was performed using the Envision with excitation at 320 nm and measuring emission at 615 nm (Perkin Elmer). Kinase activity was calculated by subtracting relative fluorescence units (RFU) obtained in the presence of a positive control inhibitor (10 μM staurosporine) from RFU obtained in the presence of vehicle. The ability of a test compound to inhibit this activity was determined as:
Percentage inhibition=((RFU determined for sample with test compound present−RFU determined for sample with positive control inhibitor) divided by (RFU determined in the presence of vehicle−RFU determined for sample with positive control inhibitor))*100.
A dose dilution series was prepared for the compound enabling the testing of dose-response effects in the JAK1 assay and the calculation of the IC50 for the compound. […] The data were expressed as the average IC50 from the assays±standard error of the mean.

JAK-STAT = JAK-STAT signalling assay (OSM-triggered pSTAT1(2)-luciferase reporter in HeLa cells); assay type: cell-based, human
Experimental: HeLa cells were maintained in Dulbecco's Modified Eagle's Medium (DMEM) containing 10% heat inactivated fetal calf serum, 100 U/mL penicillin and 100 μg/mL streptomycin. HeLa cells were used at 70% confluence for transfection. 20,000 cells in 87 μL cell culture medium were transiently transfected with 40 ng pSTAT1(2)-luciferase reporter (Panomics), 8 ng of LacZ reporter as internal control reporter and 52 ng of pBSK using 0.32 μL Jet-PEI (Polyplus) as transfection reagent per well in 96-well plate format. After overnight incubation at 37° C., 5% CO2, transfection medium was removed. 81 μL of DMEM+1.5% heat inactivated fetal calf serum was added. 9 μL compound at 10× concentration was added for 60 min and then 10 μL of human OSM (Peprotech) at 33 ng/mL final concentration.
The compound was tested in duplicate starting from 20 μM followed by a 1/3 serial dilution, 8 doses in total (20 μM-6.6 μM-2.2 μM-740 nM-250 nM-82 nM-27 nM-9 nM) in a final concentration of 0.2% DMSO.
After overnight incubation at 37° C., 5% CO2 cells were lysed by adding 100 μL lysis buffer/well (PBS, 0.9 mM CaCl2, 0.5 mM MgCl2, 10% Trehalose, 0.05% Tergitol NP9, 0.3% BSA).
40 μL of cell lysate was used to read β-galactosidase activity by adding 180 μL 11-Gal solution (30 μL ONPG 4 mg/mL+150 μL β-Galactosidase buffer (0.06 M Na2HPO4, 0.04 M NaH2PO4, 1 mM MgCl2)) for 20 min. The reaction was stopped by addition of 50 μL Na2CO3 1 M. Absorbance was read at 405 nm.
Luciferase activity was measured using 40 μL cell lysate plus 40 μL of Steadylite® as described by the manufacturer (Perkin Elmer), on the Envision (Perkin Elmer).
Omitting OSM was used as a positive control (100% inhibition). As negative control […] (0% inhibition) was used. The positive and negative controls were used to calculate z′ and ‘percent inhibition’ (PIN) values.
Percentage inhibition=((fluorescence determined in the presence of vehicle−fluorescence determined for sample with test compound present) divided by (fluorescence determined in the presence of vehicle−fluorescence determined for sample without trigger))*100.
PIN values were plotted for compounds tested in dose-response and EC50 values were derived.

[3] = average, read-out: IC50 (average)
[4] = individual determinations, read-out: IC50

Nc1nc2cccc(-c3ccc(CN4CCS(=O)(=O)CC4)cc3)n2n1 [Formula I, 5-[4-(1,1-Dioxothiomorpholin-4-ylmethyl)-phenyl]-[1,2,4]triazolo[1,5-a]pyridin-2-ylamine]
IC50 [1, 3]: 546 nM
IC50 [1, 4]: 460 nM and 586 nM and 494 nM and 758 nM and 433 nM
IC50 [2, 3]: 307 nM
IC50 [2, 4]: 347 nM and 355 nM and 222 nM and 714 nM and 167 nM and 103 nM and 187 nM and 582 nM and 295 nM and 242 nM and 159 nM
IC50 (JAK-STAT; Homo sapiens, HeLa, average, read-out: IC50 (average)): > 7430 nM
IC50 (JAK-STAT; Homo sapiens, HeLa, individual determinations, read-out: IC50): > 6670 nM
IC50 (JAK-STAT; individual determinations): Non active
IC50 (JAK-STAT; [4]): > 6670 nM and 8940 nM
